Test results published in US12104178B2, “DHFR tunable protein regulation” (Obsidian Therapeutics, Inc., priority 2017, dated 2024).
Several values for one entry are separate records, joined by “and”; a condition that tells them apart may be missing. Identical values can stand only once. Entries after “also recorded” stand apart in the source; their conditions may differ.

Assays:
HCT-116 cells [1] = assay: TMP dose response of IL15-IL15Ra surface expression (FACS); assay type: cell-based, human; settings: 24 h
Source text: Surface expression of IL15-IL15Ra fusion constructs was quantified by FACS using IL15Ra-PE antibody.
Surface expression of IL15-IL15Ra fusion construct was quantified by FACS using IL15Ra-PE antibody.

HEK-293T cells = assay: IL15 western blot of DD IL15-IL15Ra, transient transfection; assay type: cell-based, human; settings: 10 μM Trimethoprim or 1 μM Shield-1, 24 h
Protocol: To test ligand dependent IL15-IL15Ra production, 1 million HEK-293T cells were plated in a 6-well plate in growth media containing DMEM and 10 FBS and incubated overnight at 37° C., 5% CO2. […] Cells were harvested and IL15 levels are analyzed via western blotting using human IL15 antibody (Abcam, Cambridge, UK).

HEK293T cells = assay: Surface IL15 and IL15Ra FACS, transient transfection; assay type: cell-based, human; settings: Shield-1 or Trimethoprim
Protocol: 48 hours after transfection, cells were analyzed using FACS.

HCT-116 cells [2] = assay: Time course of IL15-IL15Ra surface expression with TMP; assay type: cell-based, human; settings: 10 μM TMP
Protocol: The time course of ligand dependent stabilization of IL15-IL15Ra fusion constructs was measured in HCT-116 cells.

HCT116 cells [3] = assay: IL15Ra immunoblot, TMP dose response; assay type: cell-based, human; settings: TMP 10, 33, 100 μM, 24 h
Source text: Cell lysates were obtained and immunoblotted with anti IL15Ra antibody.
Cell lysates were immunoblotted with anti IL15Ra antibody.

primary T cells = assay: Regulated expression of IL15-IL15Ra in T cells (FACS); assay type: cell-based, human
Protocol: The transduction was carried out at two different lentivirus concentrations, 5 μl and 20 μl for the DD regulated construct using Lentiboost™ (Sirion Biotech, Germany). […] Samples were analyzed with an anti IL15Ra antibody using FACS. Additional controls samples such as cells treated with Lentiboost only, untransduced cells treated with DMSO or TMP, and Isotype controls were included in the FACS analysis. […] In both figures, DMSO-A and TMP-A represent cells treated with 5 μl of lentivirus and DMSO-B and TMP-B represent cells treated with 20 μl of lentivirus. […] Additionally, very low levels of IL15Ra were detected in the DMSO treated samples under the same conditions as well as in the untransduced T cells.
IL15Ra expression was measured using FACS.

CD4 positive T cells = assay: Kinetics of IL15Ra surface expression in T cells with TMP (Table 92); assay type: cell-based, human; settings: for Stabilization ratio: TMP vs DMSO;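 on all read-outs here: CD4 positive T cells, CD3/CD28 bead-activated and lentivirally transduced with DD-IL15-IL15Ra, read for surface IL15Ra positivity, stabilization ratio is fold change of ligand over DMSO, untransduced cells as negative control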
HCT116 tumors = assay: HCT116 OT-IL15-009 tumors in mice, IL15-IL15Ra western blot and TMP levels; assay type: in vivo, BALB/c nude mice; settings: TMP 100 then 300 mg/kg orally twice a day, 17 days
HCT116 cells [4] = assay: IL15 shedding into media, ELISA and MSD; assay type: cell-based, human; settings: TMP doses
Protocol: To test if IL15 is shed into the media, supernatant from HCT116 cells expressing IL15-IL15Ra fusion constructs was subject to immunoassays such as ELISA and MSD (Rockville, Maryland). In FIG. 54B, OD indicates optical density. IL15 was measured in the media of cells expressing IL15-IL15Ra fusion constructs.

HCT116 cells [5] = assay: IL15-IL15Ra in vivo tumor study (xenograft); settings: 5 million HCT116 cells s.c., nude mice
Protocol: The functional capability of IL15-IL15Ra constructs was tested in vivo in xenograft assays. The experiment was designed to test the hypothesis that pulsatile expression of IL15-IL15Ra fusion proteins from cancer cell lines such as HCT116, in mice may stimulate the mouse's NK cells to attack the tumor leading to tumor growth inhibition. […] Tumors were allowed to develop over a period of 22 days.
Mice injected with OT-IL15-009 expressing cells were left untreated, or treated with vehicle control or TMP.

## OT-IL15-009: IL15-IL15Ra fusion with ecDHFR (R12Y, Y100I) DD
HCT-116 cells [1]; DMSO
  Median Fluorescence Intensity, surface IL15-IL15Ra: 1260
HCT-116 cells [1]; TMP 0.01 μM
  Median Fluorescence Intensity, surface IL15-IL15Ra: 1384
HCT-116 cells [1]; TMP 0.02 μM
  Median Fluorescence Intensity, surface IL15-IL15Ra: 1492
HCT-116 cells [1]; TMP 0.05 μM
  Median Fluorescence Intensity, surface IL15-IL15Ra: 1947
HCT-116 cells [1]; TMP 0.14 μM
  Median Fluorescence Intensity, surface IL15-IL15Ra: 2741
HCT-116 cells [1]; TMP 0.41 μM
  Median Fluorescence Intensity, surface IL15-IL15Ra: 3360
HCT-116 cells [1]; TMP 3.7 μM
  Median Fluorescence Intensity, surface IL15-IL15Ra: 4265
HCT-116 cells [1]; TMP 11.11 μM
  Median Fluorescence Intensity, surface IL15-IL15Ra: 4267
HCT-116 cells [1]; TMP 33.33 μM
  Median Fluorescence Intensity, surface IL15-IL15Ra: 4485
HCT-116 cells [1]; TMP 100 μM
  Median Fluorescence Intensity, surface IL15-IL15Ra: 4633
HCT-116 cells [1]; TMP […]
  Median Fluorescence Intensity, surface IL15-IL15Ra: 4014
HEK-293T cells
  IL15 stabilization by western blot (FIG. 24A): strong ligand (Trimethoprim) dependent stabilization of IL15
HEK293T cells
  Surface expression of IL15 and IL15Ra (FIG. 24B, 24C): strong ligand (Trimethoprim) dependent surface expression of IL15 and IL15Ra
HCT-116 cells [2]; 0 h
  MFI, surface IL15-IL15Ra: 4004
HCT-116 cells [2]; 12 h
  MFI, surface IL15-IL15Ra: 7054
HCT-116 cells [2]; 16 h
  MFI, surface IL15-IL15Ra: 9390
HCT-116 cells [2]; 24 h
  MFI, surface IL15-IL15Ra: 14056
HCT-116 cells [2]; 48 h
  MFI, surface IL15-IL15Ra: 28644
HCT-116 cells [2]; 72 h
  MFI, surface IL15-IL15Ra: 35303
HCT116 cells [3]
  IL15Ra expression by immunoblot (FIG. 26, 27, 54A): virtually undetectable in the absence of TMP, and addition of increasing doses of TMP resulted in an increase in IL15Ra levels
Primary T cells; 10 μM TMP 24/48 h or 0.156-160 μM 24 h
  IL15Ra expression in T cells (FIG. 35): increase in the expression of IL15Ra in T cells with both doses of lentivirus used; also recorded: An increase in the percentage of IL15Ra cells with increasing doses of TMP was observed
Primary T cells; T cells, surface expression
  % Positive cells, IL15Ra positive: 15.8%
  % Positive cells, IL15 and IL15Ra positive: 0.51%
  % Positive cells, IL15 positive: 0.60%
CD4 positive T cells; 100 μM TMP
  Percentage of IL15Ra positive cells: 16.6% and 16%
CD4 positive T cells; 100 μM TMP, 1-24 h
  Proportion of CD4 T cells with surface IL15Ra over time (FIG. 48): from 4 hrs after TMP treatment, the cells transduced with the OT-IL15-009 construct and treated with TMP exhibited an increased proportion of cells with surface expression of IL15Ra
CD4 positive T cells; 100 μM TMP, 1 hours
  percentage of IL15Ra positive CD4 positive T cells, TMP: 1.86
CD4 positive T cells; 100 μM TMP, 2 hours
  percentage of IL15Ra positive CD4 positive T cells, TMP: 2.27
CD4 positive T cells; 100 μM TMP, 4 hours
  percentage of IL15Ra positive CD4 positive T cells, TMP: 4.01
CD4 positive T cells; 100 μM TMP, 6 hours
  percentage of IL15Ra positive CD4 positive T cells, TMP: 5.85
CD4 positive T cells; 100 μM TMP, 8 hours
  percentage of IL15Ra positive CD4 positive T cells, TMP: 7.09
CD4 positive T cells; 100 μM TMP, 15 hours
  percentage of IL15Ra positive CD4 positive T cells, TMP: 12.53
CD4 positive T cells; 100 μM TMP, 22 hours
  percentage of IL15Ra positive CD4 positive T cells, TMP: 14.57
CD4 positive T cells; 100 μM TMP, 24 hours
  percentage of IL15Ra positive CD4 positive T cells, TMP: 13.75
CD4 positive T cells; 1 hours
  percentage of IL15Ra positive CD4 positive T cells, DMSO: 2.03
  Stabilization ratio: 0.92
CD4 positive T cells; 2 hours
  percentage of IL15Ra positive CD4 positive T cells, DMSO: 2.12
CD4 positive T cells; 4 hours
  percentage of IL15Ra positive CD4 positive T cells, DMSO: 1.99
  Stabilization ratio: 2.02
CD4 positive T cells; 6 hours
  percentage of IL15Ra positive CD4 positive T cells, DMSO: 1.87
  Stabilization ratio: 3.13
CD4 positive T cells; 8 hours
  percentage of IL15Ra positive CD4 positive T cells, DMSO: 2.14
  Stabilization ratio: 3.31
CD4 positive T cells; 15 hours
  percentage of IL15Ra positive CD4 positive T cells, DMSO: 2.46
  Stabilization ratio: 5.09
CD4 positive T cells; 22 hours
  percentage of IL15Ra positive CD4 positive T cells, DMSO: 2.78
  Stabilization ratio: 5.24
CD4 positive T cells; 24 hours
  percentage of IL15Ra positive CD4 positive T cells, DMSO: 2.07
  Stabilization ratio: 6.64
CD4 positive T cells; untreated T cells
  Percentage of IL15Ra positive cells: 1.68% and 1%
HCT116 tumors
  IL15-IL15Ra in tumors by western blot (FIG. 49): elevated levels of IL15-IL15Ra expression, compared to tumors treated with the vehicle
HCT116 cells [4]
  IL15 levels in the media (FIG. 54B, 54C): TMP dose dependent increase in IL15 levels detected in the media
HCT116 cells [5]
  Tumor growth (FIG. 55): mice treated with TMP had smaller tumors than mice of the other two groups
